Experimental data taken from patent US6589980B2, “Substituted 10,11-benzo[b]fluoren-10-ones as estrogenic agents” (Wyeth, priority 2001, dated 2003).

How the values were obtained:
human ERβ = target: T1, human ERβ (Homo sapiens, UniProt Q92731); assay: Competition with [3H]-17β-estradiol for binding to ERβ ligand binding domain; conditions: crude E. coli lysate expressing ER ligand binding domains (D,E,&F); 2 nM [3H]-17β-estradiol; 5-15 hours at room temperature
T1 construct: made in house; host or cells: E. coli (crude lysate)
T1 sequence (Q92731 264-498 limits assumed): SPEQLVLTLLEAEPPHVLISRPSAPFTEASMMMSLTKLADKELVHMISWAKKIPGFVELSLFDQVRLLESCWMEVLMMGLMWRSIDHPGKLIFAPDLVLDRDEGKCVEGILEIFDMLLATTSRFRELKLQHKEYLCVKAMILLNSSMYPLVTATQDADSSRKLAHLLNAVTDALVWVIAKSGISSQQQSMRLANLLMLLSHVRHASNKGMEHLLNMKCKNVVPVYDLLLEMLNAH
Method: (§1) This test procedure provides the methodology for one to determine whether a particular compound binds to the estrogen receptor (and is therefore “estrogenic”) and whether there is selectivity for ERα or ERβ. […] The procedure used is briefly described below. A crude lysate of E. coli expressing the estrogen receptor ligand binding domains (D,E, & F) of human ERα or ERβ was prepared. Both receptors and compounds were diluted in 1×Dulbecco's PBS (DPBS) supplemented with 1 mM EDTA. […] After between 5 and 15 hours at room temperature, the plates were washed with DPBS/1 mM EDTA and bound radioactivity determined by liquid scintillation counting.

human ERα = target: T2, human ERα (Homo sapiens, UniProt P03372); assay: Competition with [3H]-17β-estradiol for binding to ERα ligand binding domain; conditions: crude E. coli lysate expressing ER ligand binding domains (D,E,&F); 2 nM [3H]-17β-estradiol; 5-15 hours at room temperature
T2 construct: made in house; host or cells: E. coli (crude lysate)
T2 sequence (P03372 311-547 limits assumed): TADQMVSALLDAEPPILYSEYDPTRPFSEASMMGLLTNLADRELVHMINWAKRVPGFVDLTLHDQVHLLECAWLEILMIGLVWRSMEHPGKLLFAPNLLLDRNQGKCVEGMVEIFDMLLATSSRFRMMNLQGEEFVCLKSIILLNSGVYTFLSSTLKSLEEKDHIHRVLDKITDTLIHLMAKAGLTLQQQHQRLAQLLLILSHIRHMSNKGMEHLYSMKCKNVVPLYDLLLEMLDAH
Method: as §1

Compound	melting point	IC50 (human ERβ)	IC50 (human ERα)
O=c1c2ccc(O)cc2oc2oc3cc(O)ccc3c12 [2,8-Dihydroxy-10,11-dioxa-benzo[b]fluoren-5-one]	> 300 °C	28 nM	482 nM
O=c1c2c(O)cc(O)cc2oc2oc3cc(O)ccc3c12 [2,6,8-Trihydroxy-10,11-dioxa-benzo[b]fluoren-5-one]		2 nM	
COc1cc(O)c2c(=O)c3c(oc2c1)oc1cc(O)ccc13 [2.6-Dihvdroxy-8-methoxy-10,11-dioxa-benzo[b]fluoren-5-one]			2730 nM
